Laboratory results published in US5663175A, “Prodrugs of herpes TK inhibitors” (Merck & Co. Inc., priority 1994, dated 1997).
pIC50: −log10 of the molar value.

Target: herpes thymidine kinase (Human herpesvirus 1, UniProt P0DTH5)
Experiment: Assay for inhibition of herpes thymidine kinase
Type: biochemical
Description: The assay mixture contains in a final volume of 110 microliters the following: 50 mM Tris-HCl, pH 7.5; 5 mM MgCl2; 5 mM ATP; 2 mM dithiothreitol (DTT); 2.5 mM KF; 0.25 mg/ml bovine serum albumin (BSA); […] thymidine labeled with either ^14 C or ^3 H; the compound being tested as inhibitor; and the viral thymidine kinase. The amount of enzyme, incubation time and temperature are adjusted so that no more than 20% of the substrate is converted to product in a reaction without inhibitor. At the end of the incubation period, 100 microliters of the assay mixture are spotted on a 25 mm disk of DEAE paper. The disks are washed three times with ethanol to remove unreacted thymidine and the amount of thymidine monophosphate produced is determined by scintillation counting of the disks. The results (in IC50) are calculated to give the concentration of inhibitor resulting in 50% inhibition of enzyme. The IC50 of L-58,340 is about 100 nM.

Chain of herpes thymidine kinase (P0DTH5 whole entry): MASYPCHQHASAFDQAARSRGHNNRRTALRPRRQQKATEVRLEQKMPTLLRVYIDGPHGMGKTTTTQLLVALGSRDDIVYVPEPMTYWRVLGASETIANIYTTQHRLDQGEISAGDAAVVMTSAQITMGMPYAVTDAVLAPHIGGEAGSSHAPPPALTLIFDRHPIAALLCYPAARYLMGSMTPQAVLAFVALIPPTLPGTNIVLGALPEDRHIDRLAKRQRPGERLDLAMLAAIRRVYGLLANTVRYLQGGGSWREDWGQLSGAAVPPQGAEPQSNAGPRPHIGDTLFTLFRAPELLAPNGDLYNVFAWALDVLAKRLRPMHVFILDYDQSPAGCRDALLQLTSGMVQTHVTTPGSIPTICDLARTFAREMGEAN

Which results are given for `Nc1nc2c(ncn2C[C@H]2CCCC[C@H]2CO)c(=O)[nH]1` [L-758,340, 9-{[1(R)-hydroxymethyl-2(S)-cyclohexyl]methyl}guanine]?
pIC50 (2 mM labeled thymidine, 5 mM ATP, pH 7.5, read-out: IC50 (concentration of inhibitor resulting in 50% inhibition of enzyme)): ~7.00; activity as an inhibitor of herpes thymidine kinase relative to its enantiomer (compared with its enantiomer): substantially more active; inhibition of herpes thymidine kinase (in words) (first principal finding): potent inhibitor
